According to US20190169140A1, “IDO1 INHIBITOR AND PREPARATION METHOD AND APPLICATION THEREOF” (SHANDONG LUYE PHARMACEUTICAL CO., LTD., priority 2016, published 2019):
In brackets after ≈: the same amount, converted by molar mass. Read-outs that look alike come from different tables or passages of the source. Each block holds one molecule with its values, some of them ahead of it.

What was measured:
[1] = Measurement of thermodynamic solubility; type: physicochemical; settings: aqueous buffer, thermodynamic from solid, room temperature
Description: II. Measurement of Thermodynamic Solubility
1. Solutions for Thermodynamic Solubility
Buffer A (pH 2.0): 50 mM phosphate buffer, with a pH value of 2.0.
Buffer B (pH 7.4): 50 mM phosphate buffer, with a pH value of 7.4.
50% acetonitrile solution and 50% buffer (A, B) were mixed together to obtain a diluent. 10 mM (20 μL/compound) stock solution was added to acetonitrile (480 μL/compound), and mixed with the buffer (A, B) (500 μL/compound) to obtain 200 μM UV detection standard solution. The 200 μM UV detection standard solution was diluted with the diluent 10 times or 200 times the amount of the standard solution, so as to acquire 20 μM or 1 μM UV standard solution. 1, 20, and 200 μM UV standard solutions were taken as standard samples for thermodynamic solubility test.
No less than 2 mg of a sample powder was weighed and placed in a Whatman miniuniprep vial. If it was required to test the thermodynamic solubility of the sample in multiple buffers (A, B), an independent vial was demanded for each test. 450 μL of the buffer (A, B) was respectively added to each Whatman miniuniprep vial. After the buffer was added, a piston cover of the Whatman miniuniprep functioning to filter was put on and pressed above a liquid surface, such that a filter screen was in contact with the buffer (A, B) during the shaking. The solubility sample was shaken in a vortex manner for 1 minute, and phenomenon of the solution was recorded. The sample was shaken at 600 rpm at a room temperature (approximately 22˜25° C.) for 24 hours. The filtering cover of Whatman Miniunipreps was pressed to a bottom, to obtain a filtrate of the sample solubility solution. All sample vials should be recorded for insoluble substances before and after the filtration and leakage phenomenon thereof. The buffer (A, B) was 50-fold diluted to obtain a sample diluent.
3 UV standard solutions, from low concentration to high concentration, were injected into HPLC, and then the diluent and the supernatant of the compound to be tested were injected. The sample to be tested was in duplicate. Integration was carried out for UV chromatographic peaks. A standard curve was established by simulation and the thermodynamic solubility of the sample was calculated. HPLC conditions were as follows.

[2] = Test for permeability across MDR1; type: in vitro ADME; settings: dog, MDCK-MDR1
Description: Test for Permeability Across MDR1
A sample for test was dissolved in dimethyl sulfoxide (DMSO) or other suitable solvents, to be prepared into 10 mM stock solution. A suitable internal standard (IS) was dissolved in acetonitrile (ACN) or other organic solvents as a stop solution. Specific information would be described in a research report.
Fenoterol, propranolol, and digoxin acted as low-permeability control, high-permeability control, and P-gp substrate in the present research. The stock solutions of these compounds were prepared with DMSO, stocked at 2-8° C., and valid for use within 3 months.
In the present project, a Hank's balanced salt buffer containing 10 mM HEPES was used as a transport buffer.
MDR1-MDCK II cells were cultivated using α-MEM culture media (α-Minimum Essential Media), with a culture condition of 37±1° C., 5% CO2, and saturated relative humidity. Afterwards, the cells were inoculated into a BD Transwell-96-well plate (BD Gentest), with an inoculation density of 2.3×10^5 cells/cm^2, then the cells were placed in a carbon dioxide incubator to be incubated for 4-7 days, and then used for a transport experiment.
A solution to be used was placed in a 37±1° C. water bath kettle to be pre-incubated for 30 minutes. The donor solution and the receiver solution were respectively added to corresponding sides of wells of cell plate (to an apical side and a basolateral side, 75 μL and 250 μL of samples were added respectively), and experiment of bidirectional transport was started. After the addition of the samples, the cell plate was placed in a 37±1° C., 5% CO2 incubator with saturated relative humidity to be incubated for 150 minutes.
The samples were all centrifuged at 3220 g for 10 minutes after being shaken in a vortex manner. A suitable volume of a supernatant was transferred to a sample analyzing plate. If analysis was not carried out immediately after the plate was sealed, the plate was stored at 2-8° C. The analysis was carried out through a method of LC/MS/MS.
The sample for test, fenoterol control, propranolol control, and digoxin were analyzed in a semiquantitative manner, and specific values of analytes to a peak area of the internal standard were taken as concentration of the controls.

[3] = Death and body weight of tumor-bearing mice (CT26 model); type: in vivo
Description: Therefore, the dose of the two compounds, compound 360 and compound 117, in the present experiment was set as 100 mg/kg. In order to observe dose-efficacy relevance of 231, a dose of the compound 231 was set as 25, 50, 100, 200 mg/kg in the present experiment. All drugs were administered by gavage, twice a day.
The day of tumor inoculation was defined as Day 0, and the inoculated animals were grouped randomly on the day of inoculation. One day after the inoculation (Day 1), the administration was started. The experiment had 7 groups in total, with 12 animals in each group. See details in Table 12 for information on animal grouping and administration.
(3) As for animal weight, body weight of the mouse was weighed each time when the tumor diameter was measured or before the administration, and death of the animals was observed once a day.
7.1 Death and Body Weight of Tumor-Bearing Mice

[4] = 50 mM phosphate buffer pH 2.0, 24 hours, read-out: thermodynamic solubility (pH: 2.0)
[5] = 50 mM phosphate buffer pH 7.4, 24 hours, read-out: thermodynamic solubility (pH: 7.4)

solubility thermodynamic at 24 h [1, 4]: 138 µM (≈ 60.6 µg/mL)
solubility thermodynamic at 24 h [1, 5]: 298 µM (≈ 131 µg/mL)
Papp A→B at 150 min, 2 µM [2]: 1.76 ×10⁻⁶ cm/s
Papp B→A at 150 min, 2 µM [2]: 13.6 ×10⁻⁶ cm/s
SMILES: NS(=O)(=O)NCCOc1nonc1/C(=N/O)Nc1ccc(F)c(Br)c1 [Compound 0015]

SMILES: NS(=O)(=O)NCCSc1nonc1/C(=N/O)Nc1ccc(F)c(Br)c1 [Compound 0117]
solubility thermodynamic at 24 h [1, 4]: 2620 µM (≈ 1190 µg/mL)
solubility thermodynamic at 24 h [1, 5]: 2610 µM (≈ 1190 µg/mL)
Papp A→B at 150 min, 2 µM [2]: 3.2 ×10⁻⁶ cm/s
Papp B→A at 150 min, 2 µM [2]: 11.3 ×10⁻⁶ cm/s
Rate of Weight Change of D17 vs D1 ([3]; 100 mg/kg gavage BID): 8.5%
body weight compared with the control group when the experiment was ended ([3]; 100 mg/kg gavage BID): remarkably decreased weight
Body weight of tumor-bearing mice ([3]; 100 mg/kg gavage BID, D12): 23.1 g
Body weight of tumor-bearing mice ([3]; 100 mg/kg gavage BID, D14): 23.3 g
Body weight of tumor-bearing mice ([3]; 100 mg/kg gavage BID, D17): 24.2 g
Body weight of tumor-bearing mice ([3]; 100 mg/kg gavage BID, Day1): 22.3 g
Body weight of tumor-bearing mice ([3]; 100 mg/kg gavage BID, Day3): 22.7 g
Body weight of tumor-bearing mice ([3]; 100 mg/kg gavage BID, Day6): 22.7 g
Body weight of tumor-bearing mice ([3]; 100 mg/kg gavage BID, Day8): 21.8 g
Body weight of tumor-bearing mice ([3]; 100 mg/kg gavage BID, Day10): 22.9 g

Papp A→B at 150 min, 2 µM [2]: 12.5 ×10⁻⁶ cm/s
Papp B→A at 150 min, 2 µM [2]: 18 ×10⁻⁶ cm/s
SMILES: CC(=O)NCCSc1nonc1/C(=N/O)Nc1ccc(F)c(Br)c1 [Compound 0227]

SMILES: NC(=O)NCCSc1nonc1/C(=N/O)Nc1ccc(F)c(Br)c1 [Compound 0231]
solubility thermodynamic at 24 h [1, 4]: 155 µM (≈ 65 µg/mL)
solubility thermodynamic at 24 h [1, 5]: 125 µM (≈ 52.4 µg/mL)
Papp A→B at 150 min, 2 µM [2]: 3.79 ×10⁻⁶ cm/s
Papp B→A at 150 min, 2 µM [2]: 17.9 ×10⁻⁶ cm/s
Rate of Weight Change of D17 vs D1 ([3]; 25 mg/kg gavage BID): 12.0%
body weight compared with the control group when the experiment was ended ([3]; 25 mg/kg gavage BID): no significant difference
Body weight of tumor-bearing mice ([3]; 25 mg/kg gavage BID, D12): 23.9 g
Body weight of tumor-bearing mice ([3]; 25 mg/kg gavage BID, D14): 24.4 g
Body weight of tumor-bearing mice ([3]; 25 mg/kg gavage BID, D17): 25.2 g
Body weight of tumor-bearing mice ([3]; 25 mg/kg gavage BID, Day1): 22.5 g
Body weight of tumor-bearing mice ([3]; 25 mg/kg gavage BID, Day3): 21.5 g
Body weight of tumor-bearing mice ([3]; 25 mg/kg gavage BID, Day6): 23.3 g
Body weight of tumor-bearing mice ([3]; 25 mg/kg gavage BID, Day8): 23.0 g
Body weight of tumor-bearing mice ([3]; 25 mg/kg gavage BID, Day10): 23.1 g
Rate of Weight Change of D17 vs D1 ([3]; 50 mg/kg gavage BID): 7.5%
body weight compared with the control group when the experiment was ended ([3]; 50 mg/kg gavage BID): remarkably decreased weight
Body weight of tumor-bearing mice ([3]; 50 mg/kg gavage BID, D12): 23.4 g
Body weight of tumor-bearing mice ([3]; 50 mg/kg gavage BID, D14): 24.2 g
Body weight of tumor-bearing mice ([3]; 50 mg/kg gavage BID, D17): 24.5 g
Body weight of tumor-bearing mice ([3]; 50 mg/kg gavage BID, Day1): 22.8 g
Body weight of tumor-bearing mice ([3]; 50 mg/kg gavage BID, Day3): 23.0 g
Body weight of tumor-bearing mice ([3]; 50 mg/kg gavage BID, Day6): 22.7 g
Body weight of tumor-bearing mice ([3]; 50 mg/kg gavage BID, Day8): 22.6 g
Body weight of tumor-bearing mice ([3]; 50 mg/kg gavage BID, Day10): 23.2 g
Rate of Weight Change of D17 vs D1 ([3]; 100 mg/kg gavage BID): 8.4%
body weight compared with the control group when the experiment was ended ([3]; 100 mg/kg gavage BID): remarkably decreased weight
Body weight of tumor-bearing mice ([3]; 100 mg/kg gavage BID, D12): 23.5 g
Body weight of tumor-bearing mice ([3]; 100 mg/kg gavage BID, D14): 24.3 g
Body weight of tumor-bearing mice ([3]; 100 mg/kg gavage BID, D17): 24.4 g
Body weight of tumor-bearing mice ([3]; 100 mg/kg gavage BID, Day1): 22.5 g
Body weight of tumor-bearing mice ([3]; 100 mg/kg gavage BID, Day3): 22.7 g
Body weight of tumor-bearing mice ([3]; 100 mg/kg gavage BID, Day6): 22.8 g
Body weight of tumor-bearing mice ([3]; 100 mg/kg gavage BID, Day8): 23.2 g
Body weight of tumor-bearing mice ([3]; 100 mg/kg gavage BID, Day10): 23.4 g
Rate of Weight Change of D17 vs D1 ([3]; 200 mg/kg gavage BID): 4.4%
body weight compared with the control group when the experiment was ended ([3]; 200 mg/kg gavage BID): remarkably decreased weight
Body weight of tumor-bearing mice ([3]; 200 mg/kg gavage BID, D12): 22.3 g
Body weight of tumor-bearing mice ([3]; 200 mg/kg gavage BID, D14): 22.9 g
Body weight of tumor-bearing mice ([3]; 200 mg/kg gavage BID, D17): 23.7 g
Body weight of tumor-bearing mice ([3]; 200 mg/kg gavage BID, Day1): 22.7 g
Body weight of tumor-bearing mice ([3]; 200 mg/kg gavage BID, Day3): 23.2 g
Body weight of tumor-bearing mice ([3]; 200 mg/kg gavage BID, Day6): 20.8 g
Body weight of tumor-bearing mice ([3]; 200 mg/kg gavage BID, Day8): 21.9 g
Body weight of tumor-bearing mice ([3]; 200 mg/kg gavage BID, Day10): 22.0 g

SMILES: NS(=O)(=O)NCCNc1nonc1C(=NO)Nc1ccc(F)c(Br)c1 [Compound 360, INCB024360, reference compound]
solubility thermodynamic at 24 h [1, 4]: 65 µM (≈ 28.5 µg/mL)
solubility thermodynamic at 24 h [1, 5]: 160 µM (≈ 70.1 µg/mL)
Papp A→B at 150 min, 2 µM [2]: 1.61 ×10⁻⁶ cm/s
Papp B→A at 150 min, 2 µM [2]: 13.3 ×10⁻⁶ cm/s
Rate of Weight Change of D17 vs D1 ([3]; 100 mg/kg gavage BID): 9.4%
body weight compared with the control group when the experiment was ended ([3]; 100 mg/kg gavage BID): no significant difference
Body weight of tumor-bearing mice ([3]; 100 mg/kg gavage BID, D12): 24.5 g
Body weight of tumor-bearing mice ([3]; 100 mg/kg gavage BID, D14): 25.0 g
Body weight of tumor-bearing mice ([3]; 100 mg/kg gavage BID, D17): 25.3 g
Body weight of tumor-bearing mice ([3]; 100 mg/kg gavage BID, Day1): 23.2 g
Body weight of tumor-bearing mice ([3]; 100 mg/kg gavage BID, Day3): 23.5 g
Body weight of tumor-bearing mice ([3]; 100 mg/kg gavage BID, Day6): 23.7 g
Body weight of tumor-bearing mice ([3]; 100 mg/kg gavage BID, Day8): 23.5 g
Body weight of tumor-bearing mice ([3]; 100 mg/kg gavage BID, Day10): 23.9 g
